The record followed here is patent US9884063B2, “Amido-substituted azole compounds” (Bayer Pharma Aktiengesellschaft, priority 2014, dated 2018).

One assay addresses T1, TNKS1 (Homo sapiens, UniProt O95271).
T1 sequence (O95271 1-1327): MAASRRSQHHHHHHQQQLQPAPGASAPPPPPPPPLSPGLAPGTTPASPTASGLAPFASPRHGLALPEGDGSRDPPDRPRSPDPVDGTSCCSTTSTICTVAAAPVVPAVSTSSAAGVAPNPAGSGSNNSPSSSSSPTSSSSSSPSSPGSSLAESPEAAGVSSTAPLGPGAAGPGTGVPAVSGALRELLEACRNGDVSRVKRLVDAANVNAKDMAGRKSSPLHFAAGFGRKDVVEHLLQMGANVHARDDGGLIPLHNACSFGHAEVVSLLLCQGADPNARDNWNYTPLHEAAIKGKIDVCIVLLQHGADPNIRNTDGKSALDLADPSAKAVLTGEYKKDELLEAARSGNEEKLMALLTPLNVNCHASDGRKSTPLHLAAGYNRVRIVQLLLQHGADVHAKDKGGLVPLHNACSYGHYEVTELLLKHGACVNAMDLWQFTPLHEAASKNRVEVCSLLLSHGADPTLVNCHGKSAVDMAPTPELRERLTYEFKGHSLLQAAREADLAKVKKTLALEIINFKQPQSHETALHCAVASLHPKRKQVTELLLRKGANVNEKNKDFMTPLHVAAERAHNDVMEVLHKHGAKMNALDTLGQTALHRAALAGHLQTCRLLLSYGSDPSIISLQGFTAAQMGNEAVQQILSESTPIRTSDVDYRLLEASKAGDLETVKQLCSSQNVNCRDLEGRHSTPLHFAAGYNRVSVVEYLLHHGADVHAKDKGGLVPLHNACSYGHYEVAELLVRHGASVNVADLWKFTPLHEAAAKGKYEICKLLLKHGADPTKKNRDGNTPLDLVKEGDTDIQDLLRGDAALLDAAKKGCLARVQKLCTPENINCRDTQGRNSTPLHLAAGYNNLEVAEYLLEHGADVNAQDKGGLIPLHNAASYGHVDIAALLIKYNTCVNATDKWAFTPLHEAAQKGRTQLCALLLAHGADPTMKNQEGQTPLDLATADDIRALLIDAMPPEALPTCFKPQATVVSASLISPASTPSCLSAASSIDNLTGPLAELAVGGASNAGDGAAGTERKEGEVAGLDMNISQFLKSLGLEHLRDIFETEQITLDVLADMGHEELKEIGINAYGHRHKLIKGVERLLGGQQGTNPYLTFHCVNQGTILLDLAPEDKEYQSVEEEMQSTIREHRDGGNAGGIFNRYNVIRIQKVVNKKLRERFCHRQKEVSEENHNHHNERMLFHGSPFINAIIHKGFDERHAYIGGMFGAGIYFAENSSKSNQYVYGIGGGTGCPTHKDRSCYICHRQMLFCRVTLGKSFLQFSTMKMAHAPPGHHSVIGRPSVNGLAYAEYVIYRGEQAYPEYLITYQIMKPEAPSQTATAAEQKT
Description: TNKS1 Assay 1 (TNKS1 Histone Ribosylation Assay Kit, biotin-labeled NAD+). To be noted: chemiluminescent readout, 384 well. It is filed as biochemical. How it is done:
The potency of the compounds according to the invention was assessed by applying an in vitro inhibition assay. The TNKS1 catalyzed NAD^+-dependent ribosylation of a suitable protein substrate was detected using a commercially available biotin/streptavidin binding based assay format [TNKS1 Histone Ribosylation Assay Kit (Biotin-labeled NAD+), Catalog #80579; BPS Bioscience, San Diego, USA]. Here, the incorporation of a biotin-labeled NAD+ during the TNKS1 catalyzed ribosylation reaction was detected with a streptavidin-HRP coupled chemi-luminescent readout. The intensity of the readout signal is proportional to the incorporated NAD^+. Inhibition of TNKS1 leads to a decreased incorporation of NAD^+ and consequently to a lower readout signal intensity. The concentration of a test compound which inhibits the enzyme activity by 50% (corresponds to half of the normed readout signal intensity) is reported as IC50.
The assay was conducted in a 384 well MTP format according to the manufacturer's protocol [bpsbioscience.com/poly-adp-ribose-polymerase/assay-kit/tnks1-histone-ribosylation-assay-kit-biotin-labeled-nad-80579 referencing: Brown, J. A., Marala, R. B. J. Pharmacol. Toxicol. Methods 2002 47:137-41] and using a BMG Pherastar MTP reader [BMG-Labtech, Offenburg, Germany].

The test system of assay [1] is HEK293 FOP control reporter cell line. Description: HEK293 FOP Assay (FOP control vector luciferase reporter). Format: cell-based. To be noted: Homo sapiens. In outline:
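Stable HEK293 line carrying the FOP vector (randomized, non-functional TCF sites; Geneticin-selected) was run in parallel with the TOP line. Cells were plated 24 h ahead at 10000/well and given recombinant human Wnt-3a at 2500–5 ng/ml. Compounds were tested at 50 μM–15 nM (3.16-fold steps) in CAFTY buffer, pH 7.4, with 2 mM Ca2+ and 0.01% BSA.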
On the technique in general: A reporter such as luciferase makes a cellular process visible.

Where [2] appears, read: HEK293 FOP control reporter cells, 16 hours, luciferase, dilution series from 50 μM.

Consider `CNC(=O)c1nc[nH]c1C(=O)Nc1ccc(NC(=O)c2c(-c3ccccc3)nn(C)c2Cl)cc1` [Example 17, N^5-(4-{[(5-chloro-1-methyl-3-phenyl-1H-pyrazol-4-yl)carbonyl]amino}phenyl)-N^4-methyl-1H-imidazole-4,5-dicarboxamide], for which the IC50 at TNKS1 (Table 1) was over 100000 nM; against TNKS1 (first table), at least 100000 nM; in assay [1] (HEK293 FOP control reporter cell line, 16 hours incubation, compound dilution series 50 μM to 15 nM), 26 µM; in assay [1] (setting [2]) it was 26 µM.

On to `CNC(=O)c1nc[nH]c1C(=O)Nc1ccc(NC(=O)c2c(C)cc(F)cc2C)cc1` [Example 23, N^5-{4-[(4-fluoro-2,6-dimethylbenzoyl)amino]phenyl}-N^4-methyl-1H-imidazole-4,5-dicarboxamide], for which the IC50 was 770 nM at TNKS1 (Table 1), 770 nM at TNKS1 (first table) and at least 50 µM in assay [1] (setting [2]).

Regarding `CNC(=O)c1nc[nH]c1C(=O)Nc1ccc(NC(=O)c2ccc(N3CCCC3)cc2F)cc1` [Example 3, N^5-(4-{[2-fluoro-4-(pyrrolidin-1-yl)benzoyl]amino}phenyl)-N^4-methyl-1H-imidazole-4,5-dicarboxamide], the IC50 at TNKS1 (Table 1) is over 100000 nM; in assay [1] (setting [2]) it was at least 50 µM.

For `O=C(Nc1ccc(NC(=O)c2[nH]cnc2C(=O)NCc2ccccc2)cc1)c1ccc(F)cc1Cl` [Example 18, N^4-benzyl-N^5-{4-[(2-chloro-4-fluorobenzoyl)amino]phenyl}-1H-imidazole-4,5-dicarboxamide], the IC50 against TNKS1 (Table 1) is 420 nM; against TNKS1 (first table) it was 420 nM; in assay [1] (setting [2]), at least 50 µM.

With `CNC(=O)c1nc[nH]c1C(=O)Nc1ccc(NC(=O)c2ccccc2Cl)cc1` [Example 27, N^5-{4-[(2-chlorobenzoyl)amino]phenyl}-N^4-methyl-1H-imidazole-4,5-dicarboxamide], the IC50 against TNKS1 (Table 1) was 100 nM; at TNKS1 (first table), 100 nM; in assay [1] (setting [2]), at least 50 µM.

A word on the IC50: it is the midpoint of a concentration-inhibition curve.
